Columns and labels:
Assay type in all cases: cell-based, human
[1] = tested on: NK cells; assay: [Cr51]-release assay: lysis of tumour target cells by pre-treated NK cells after H2O2 exposure; conditions: for Lysis of K562 target cells by pre-treated NK cells after H2O2 exposure: 18 h pre-treatment, H2O2 1 h up to 250 μM, E:T 9:1, vs control NK cells; for Suppressive effect of H2O2 on lymphocyte function (killing, degranulation, IFNγ): expanded NK cells and patient derived TIL, pre-treatment; for Dependence of the protective effect on Nrf2 activation: qPCR of Nrf2 target genes and K562 lysis with/without Nrf2 inhibitor ML385
From the text: Peripheral blood samples (anonymized by-products of blood donations from healthy adult donors) were purchased from Karolinska University Hospital Blood Bank. Peripheral blood mononuclear cells (PBMC) were isolated from healthy donor buffy coats using density centrifugation with Ficoll® Paque Plus (GE Healthcare). NK cells and CD14^+ monocytes were isolated from PBMCs using NK cell isolation kit or CD14^+ microbeads, respectively (both Miltenyi Biotec), following the manufacturer's instructions. For NK cell expansion, a EBV-LCL feeder cell line was used, irradiated at 100 gy and then co-cultured with NK cells, at the ratio 10:1 LCL:NK, in X-Vivo 20 (Lonza) supplemented with 10% human AB serum and 1000 U/mL IL-2 (Proleukin). From day 6 or 10, NK cells were kept at 0.5×10^6 cells/mL or 1×10^6/mL, respectively. Purity of expanded NK cell was assessed at day 10 by flow cytometry, see below.
Lymphocytes were pre-treated for 18 h with Auranofin (AUF, with the concentration 1 μg/mL for NK cells and 0.5 μg/mL for TIL, if not indicated differently), DL-Sulforaphane (SUL) or Dimethyl Fumarate (DMF) (all Sigma-Aldrich) at indicated concentrations.
(§1) For Nrf2 inhibition, NK cells were treated with 50 μM ML-385 (Sigma-Aldrich) in parallel. For H2O2 treatment, lymphocyte cells were washed and resuspended to 1×10^6 cells/mL in medium and exposed to indicated H2O2 (Sigma-Aldrich) concentration for 1 h at 37° C. Cells were washed with medium and then used for further experiments. For monocyte experiments, autologous NK cell-monocytes or TIL-monocytes were used. NK cells/TIL were isolated and pre-treated with 0.5 μg/mL AUF, as described above, and co-cultured with unstimulated at the ratio, 1:2 M:NK, or stimulated monocytes at the ratio, 1:1 M:NK, if not indicated otherwise. Stimulated monocytes were activated with 100 ng/ml PMA for 1 min, washed and added at indicated ratio, the number of NK cell/TIL was kept constant. As control, H2O2 was used at indicated concentration. Cells were co-cultured for 2 h and then effector cells were stained for intracellular ROS (see flow cytometry) or used as effector cells in Cr^51 release assay (E:T ratio 10:1).
(§2) For cytotoxic assay, a standard 4 h [Cr^51]-release assay was used. Briefly, tumour cells were harvested and labeled with 51Cr (PerkinElmer) and used as target cells. Effector cells, NK cells and T cells, were co-cultured in 96-well V-bottom plate with indicated tumour cells at the stated effector target ratio (E:T). The supernatant was collected onto LUMA plates (Perkin-Elmer) and radioactivity/tumour cell lysis was detected by MicroBeta2 (Perkin Elmer). Target cell killing measured by % specific lysis and calculated using the formula: ((experimental release-spontaneous release)/(maximum release-spontaneous release))*100.
Lymphocytes were pre-treated for 18 h with Auranofin (AUF, with the concentration 1 μg/mL for NK cells and 0.5 μg/mL for TIL. As AUF was reconstituted in DMSO, control NK cells were pre-treated with DMSO with an equivalent volume to the highest compound concentration. For N-acetylcysteine (NAC, Invitrogen) treatment, DMSO pre-treated cells were incubated for 1 h with 5 or 10 mM NAC prior to H2O2 treatment. For H2O2 treatment, lymphocytes were washed and resuspended to 1×10^6 cells/mL in RPMI containing the indicated H2O2 (Sigma-Aldrich) concentration for 1 h at 37° C. 5% CO2. Cells were washed with medium and then used for further experiments.

[2] = tested on: tumour infiltrating lymphocytes (TIL); assay: IFNγ release by pre-treated TIL on autologous tumour cells after H2O2 treatment; conditions: KADA and ANRU melanoma TIL, E:T 4:1, vs control group
Method: ., 2020). […] For Nrf2 inhibition, NK cells were treated with 50 μM ML-385 (Sigma-Aldrich) in parallel. […] Cells were washed with medium and then used for further experiments. For monocyte experiments, autologous NK cell-monocytes or TIL-monocytes were used. […] Stimulated monocytes were activated with 100 ng/ml PMA for 1 min, washed and added at indicated ratio, the number of NK cell/TIL was kept constant. […] For cytokine release assay, NK cells and TIL were cultured with indicated tumour cells at the effector target ratio 4:1 (E:T) for 24 h in U-bottom plates. IFNγ secretion was measured using human IFN-γ ELISA development kit (Mabtech) following the manufacturer's instructions.

[3] = tested on: Nrf2 target genes (NQO1, HMOX1, TXNRD1, Keap1); assay: qPCR of classical Nrf2 target genes in NK cells; conditions: kinetic, fold change vs untreated
Method: Lymphocytes were pre-treated with AUF, SUL or DMF as described above. RNA was isolated using TRIzol™ Plus RNA Purification Kit (Invitrogen). cDNA was generated using the iScript™ cDNA Synthesis Kit (Bio-Rad) and qPCR was done using iTaq™ Universal SYBR® Green Supermix (Bio-Rad) in the CFX96 Touch Real-Time PCR Detection System (Bio-Rad). Fold change expression from untreated cells was calculated using the 2^-ΔΔCt formula with b-actin as reference gene. Evaluated genes were NAD(P)H Quinone Dehydrogenase 1 (NQO1), Kelch Like ECH Associated Protein 1 (Keap1), Heme Oxygenase 1 (HMOX1) and Thioredoxin Reductase 1 (TXNRD1).

[4] = tested on: NK cells; assay: ADCC: NK cells with RAJI cells coated with Rituximab or Ofatumumab; conditions: Rituximab 0.5 μg/mL or Ofatumumab 0.05 μg/mL, E:T 9:1
Method: Lymphocytes were isolated and pre-treated when indicated, with compound and H2O2, as described above. For degranulation/measuring CD107a expression, NK cells were co-cultured with K562 tumour cells at an effector target ratio 1:1 in the presence of anti-CD107a in U-bottom plates. After 2 h, GolgiStop™ and GolgiPlug™ (BD Bioscience) were added and cells were harvested after an additional 4 h co-culture and stained for CD56 and CD3, as described above. For positive control, 25 ng/ml PMA (Sigma Aldrich) and 500 ng/mL Ionomycin (Sigma Aldrich) were added.
as §2
For analyzing ADCC, NK cells were cultured with RAJI cells and Rituximab (0.5 μg/mL, MabThera, Roche) or Ofatumumab (0.05 μg/mL, Arzerra, Novartis).

[5] = tested on: NK cells; assay: NK cells co-cultured with PMA-activated autologous monocytes: intracellular ROS and K562 lysis; conditions: 100 U/mL catalase; intracellular ROS and K562 lysis
Method: as §1
Monocytes were stimulated with 100 ng/ml PMA for 1 min and washed with HBSS (Gibco). Cells were resuspended in HBSS 5% FBS and added to a 96-well Optiplate (Perkin Elmer) containing HBSS 5% FBS and Luminol (56 μM; Sigma). Luminescence was measured immediately using a EnSpire plate reader (Perkin Elmer).
For detection of intracellular ROS levels, for NK cells CellROX™ Deep Red Reagent (Invitrogen) were used. Briefly, NK cells were stained with 2.5 μM CellROX solution in RPMI for 30 min at 37° C. and then stained for flow cytometry with anti-CD56 and anti-CD3 (both Biolegend).
as §2

C[S+]([O-])CCCCN=C=S (racemic) [SUL, 1-Isothiocyanato-4-(methanesulfinyl)butane]
Lysis of K562 target cells by pre-treated NK cells after H2O2 exposure [1]: comparable protective effects as AUF
Suppressive effect of H2O2 on lymphocyte function (killing, degranulation, IFNγ) [1]: counteracts the suppressive effect of H2O2 on lymphocyte function
Dependence of the protective effect on Nrf2 activation [1]: dependent on Nrf2 activation
Recognition of autologous tumour cells by TIL (IFNγ production) upon exposure to H2O2 [2]: increased recognition of their autologous tumour cells
Influence on Nrf2 target genes in NK cells compared with AUF [3]: comparable influence

COC(=O)/C=C/C(=O)OC [DMF, Dimethyl (E)-butenedioate]
Lysis of K562 target cells by pre-treated NK cells after H2O2 exposure [1]: comparable protective effects as AUF
Suppressive effect of H2O2 on lymphocyte function (killing, degranulation, IFNγ) [1]: counteracts the suppressive effect of H2O2 on lymphocyte function
Dependence of the protective effect on Nrf2 activation [1]: dependent on Nrf2 activation
Recognition of autologous tumour cells by TIL (IFNγ production) upon exposure to H2O2 [2]: increased recognition of their autologous tumour cells
Influence on Nrf2 target genes in NK cells compared with AUF [3]: comparable influence

Cc1ccccc1C(=O)N1CCc2cc(-c3nc(NC(=O)Cc4ccc5c(c4)OCO5)sc3C)ccc21 [ML385]
Effect of ML385 on K562 lysis by DMSO pre-treated control NK cells ([1]; 50 μM ML385): no effects
Lysis of K562 by NK cells pre-treated with AUF, SUL or DMF in combination with ML385 ([1]; 50 μM ML385, cells exposed to H2O2): significantly reduced

CC(=O)N[C@@H](CS)C(=O)O [NAC, N-acetylcysteine]
Protection of K562 lysis by control NK cells pre-treated with NAC, compared to AUF ([1]; 1 h, 5 or 10 mM NAC, increased H2O2 concentrations): less protection

Ofatumumab: antibody therapy targeting CD20
Recognition of antibody-coated RAJI cells by NK cells (killing and CD107a degranulation) [4]: efficient recognition of the target cells

Rituximab: antibody therapy targeting CD20
Recognition of antibody-coated RAJI cells by NK cells (killing and CD107a degranulation) [4]: efficient recognition of the target cells

B1: catalase: an enzyme efficiently converting H2O2 to H2O and O2 (protein, UniProt P04040 2-527, looked up)
Catalase: ADSRDPASDQMQHWKEQRAAQKADVLTTGAGNPVGDKLNVITVGPRGPLLVQDVVFTDEMAHFDRERIPERVVHAKGAGAFGYFEVTHDITKYSKAKVFEHIGKKTPIAVRFSTVAGESGSADTVRDPRGFAVKFYTEDGNWDLVGNNTPIFFIRDPILFPSFIHSQKRNPQTHLKDPDMVWDFWSLRPESLHQVSFLFSDRGIPDGHRHMNGYGSHTFKLVNANGEAVYCKFHYKTDQGIKNLSVEDAARLSQEDPDYGIRDLFNAIATGKYPSWTFYIQVMTFNQAETFPFNPFDLTKVWPHKDYPLIPVGKLVLNRNPVNYFAEVEQIAFDPSNMPPGIEASPDKMLQGRLFAYPDTHRHRLGPNYLHIPVNCPYRARVANYQRDGPMCMQDNQGGAPNYYPNSFGAPEQQPSALEHSIQYSGEVRRFNTANDDNVTQVRAFYVNVLNEEQRKRLCENIAGHLKDAQIFIQKKAVKNFTEVHPDYGSHIQALLDKYNAEKPKNAIHTFVQSGSHLAAREKANL
Lysis of K562 target cells by control NK cells with catalase added before H2O2 ([1]; catalase added to control NK cells before incubation with H2O2): improve the function of the control NK cells in a comparable way to AUF pre-treatment
Difference between activated monocytes or H2O2 treated control NK cells in the presence of catalase [5]: no difference

— patent US20240277767A1, “METHODS AND USES” (PROLEUKOCYTE AB, priority 2021, published 2024)
